“Also recorded” adds a separate entry of the source. Read-outs that look alike come from different tables or passages of the source.
How the values were obtained:
Giardia duodenalis = assay: Washout / growth recovery of Giardia after 5 h exposure; format: cell-based; details: 5 h treatment, 48 h post removal
CaCo-2 cells = details: human, 24 h, 25 μM
Experimental: Biology Materials and Methods: […]
(§1) CaCo-2 cells, a human cell line derived from a primary colonic tumour, were sourced from Cellbank Australia and were maintained in MEM supplemented with 2 mM glutamine, 1% non-essential amino acids and 10% FCS (Thermo Scientific). Cells were passaged when confluent, approximately 1-2 times per week. Vero cells were also obtained from Cellbank Australia and maintained as above.
In vitro drug efficacy assays […]
2007). The media was removed and replaced with an equal volume of warm PBS. Resazurin (Sigma) was then added at 10% of the total volume of the wells. Plates were further incubated for colour development and absorbance read at 570 nm and 630 nm. Resazurin reduction was calculated according to the following formula: […]
(§2) CaCo-2 or Vero cells, maintained as outlined above, were collected via trypsinisation and enumerated using trypan blue and a haemocytometer. Select analogues were prepared in DMSO so that the final concentration in the assay was 25 μM. 1 X 10^5 cells/ml were added to each assay with the appropriate drug dilution. Assays were completed in 96 well plates and incubated for 24 hours at 37°C, 5% CO2 in a humidified incubator. After incubation cells were […]
(§3) washed with warm PBS before the addition of 10% resazurin in PBS. Assays were incubated to allow colour development and absorbance read at 630 and 570nm. Activity of the analogues against mammalian cells was calculated according to the formula stated above.

[1] = test system: Giardia duodenalis trophozoites (BAH2c2 strain); assay: Resazurin reduction assay on Giardia trophozoites in vitro; format: cell-based; details: for Selectivity ratio: higher ratios = more selective
Source text: Biology Materials and Methods:
Metronidazole was sourced from sigma.
Chemicals used for the culture of Giardia in vitro were sourced as follows: glucose and L-cysteine (ACROS organics, Thermo Fisher Scientific, Scoresby, Vic), Ammonium Iron (III) citrate, ascorbic Acid (Sigma -aldrich, Castle Hill, NSW), potassium dihydrogen orthophosphate (UNIVAR, Ingleburn, NSW), bovine bi le (Fluka analytical (BD)), di-potassium hydrogen orthophosphate (Fronine laboratory supplies, Riverstone, NSW).
G. duodenalis (BAH2c2 strain) was cultivated according to the method of Clark and Diamond in Keister’s modified TYI-S-33 medium, supplemented with heat inactivated foetal bovine serum (Hyclone™, Thermo Scientific, Scoresby, Vic) at 37°C in plastic 9 mL screw-capped test tubes (nunc). Subcultures were performed once a confluent monolayer was observed, approximately 2 – 3 times per week (Clark and Diamond, 2002).
as §1
In vitro drug efficacy assays
Resazurin Reduction Assay […]
tested to identify the IC50 and minimum lethal concentration (MLC). For all assays the media of confluent cultures was replaced with fresh media and the cultures were placed on ice for 40 minutes to detach trophozoites.
Trophozoites were enumerated using a haemocytometer and 50 000 trophozoites were added to each test well of a 96 well plate. Either single concentrations (final concentration 25 μM) for the screening assay or tripling dilutions […]
wells. The assays were repeated in triplicate with metronidazole and a DMSO (vehicle only) used as controls. Plates were incubated under anaerobic conditions (anaerogen sachet, Thermofisher scientific) for 5 or 24 hours at 37°C following which the viability of treated cells was determined using the resazurin reduction assay (Benere et al., 2007). The media was removed and replaced with an equal volume of warm PBS. Resazurin (Sigma) was then added at 10% of the total volume of the wells. Plates were further incubated for colour development and absorbance read at 570 nm and 630 nm. Resazurin reduction was calculated according to the following formula: […]
as §2, §3

In vivo toxicity in mice = details: per os, 100 mg/kg per day for 3 days, 100 mg/kg/day

SMILES | Giardia regrowth after compound removal (Giardia duodenalis) | Toxicity (% growth control) (CaCo-2 cells) | IC50 ([1]; Giardia duodenalis, 24 h, read-out: Antigiardial activity IC50 (24 h)) | MIC ([1]; Giardia duodenalis, 24 h, minimum inhibitory concentration, read-out: Antigiardial activity MIC (24 h)) | Selectivity ratio ([1]; toxicity tested at 25 μM vs 24 h IC50, Tables 1-3) | IC50 ([1]; Giardia duodenalis, 5 h, read-out: Antigiardial activity IC50 (5 h)) | time to marked impact on Giardia trophozoites ([1]; data not shown) | Selectivity ratio ([1]; toxicity tested at 25 μM vs 5 h IC50, Table 4) | Tolerability in mice (adverse effects) (In vivo toxicity in mice)
Cl.N=C(N/N=C/c1ccc(Cl)cc1)N/N=C/c1ccc(Cl)cc1 [Robenidine 4, robenidine, reference compound] | did not result in Giardia regrowth | 40.7±22.6% | 900 nM | 2.8 µM | >27.8 |  |  |  | 
COc1cc(Br)c(C=NNC(=N)NN=Cc2cc(OC)c(OC)cc2Br)cc1OC.Cl [Compound 41, 2,2′‐bis[(2‐bromo‐4,5‐dimethoxyphenyl)methylene]carbonimidic dihydrazide hydrochloride] | no Giardia regrowth; also recorded: did not result in Giardia regrowth |  |  |  |  | 200 nM | 1 to 2 h | >125 | well tolerated; also recorded: no adverse effects
